The text below walks through data of ChEMBL document CHEMBL2157985, “Development of programmable small DNA-binding molecules with epigenetic activity for induction of core pluripotency genes” (Bioorg Med Chem, 2012).

In data set [1] the test system is MEF. Briefly: Cytotoxicity against C57BL/6 MEF at 100 nM by WST-8 assay. As to conditions: mouse, 0.1 µM. It is filed as cell-based. For orientation: Tetrazolium assays rely on reduction of a dye to a coloured formazan, in cell work by metabolically active cells.
Data set [2] relates to MEF. Briefly: Induction of Oct3/4 gene expression in C57BL/6 MEF at 100 nM after 24 hrs by quantitative RT-PCR analysis relative to control. As to conditions: for Activity: Mus musculus. It is filed as functional, Mus musculus.
The subject of data set [3] is MEF. Briefly: Upregulation of Nanog gene expression in C57BL/6 MEF at 100 nM after 24 hrs by quantitative RT-PCR analysis relative to control. It is filed as functional, Mus musculus. To be noted: for Activity: Mus musculus.
The test system of data set [4] is MEF. Put plainly: Upregulation of Sox2 gene expression in C57BL/6 MEF at 100 nM after 24 hrs by quantitative RT-PCR analysis relative to control. Format: functional, cell-based. To be noted: Mus musculus.
In data set [5] the test system is MEF. Briefly: Upregulation of Klf4 gene expression in C57BL/6 MEF at 100 nM after 24 hrs by quantitative RT-PCR analysis relative to control. Format: functional, Mus musculus. To be noted: for Activity: Mus musculus.
The subject of data set [6] is MEF. Put plainly: Upregulation of c-Myc gene expression in C57BL/6 MEF at 100 nM after 24 hrs by quantitative RT-PCR analysis relative to control. Format: functional, Mus musculus. To be noted: for Activity: Mus musculus.
Data set [7] in a line: Inhibition of HDAC.

Active and inactive are the calls of the source. The calls are words filed in the database; no cut-off is given here.

In the case of `CN(C)CCCNC(=O)c1cc(NC(=O)c2cc(NC(=O)c3cc(NC(=O)c4cc(NC(=O)CCCNC(=O)c5cc(NC(=O)c6cc(NC(=O)c7cc(NC(=O)c8nc(NC(=O)CCNC(=O)CCNC(=O)CCNC(=O)CCNC(=O)c9ccc(NC(=O)CCCCCCC(=O)NO)cc9)cn8C)cn7C)cn6C)cn5C)cn4C)cn3C)cn2C)cn1C`, in the data set on MEF [1], the Activity entry was “Non-toxic”. In addition, the “fold change (FC)” value in the data set with MEF [2] turned out to be 3.6; in the data set with MEF [3], 2; in the data set with MEF [5], 1.5; with MEF [6], 1.5. Besides, the outcome in the data set with MEF [4] was Active. Also, in data set [7], the HDAC inhibition activity entry was “Active”.
In the case of `CONC(=O)CCCCCCC(=O)Nc1ccc(C(=O)NCCC(=O)NCCC(=O)Nc2cn(C)c(C(=O)Nc3cc(C(=O)Nc4cc(C(=O)Nc5cc(C(=O)NCCCC(=O)Nc6cc(C(=O)Nc7cc(C(=O)Nc8cc(C(=O)Nc9cc(C(=O)NCCCN(C)C)n(C)c9)n(C)c8)n(C)c7)n(C)c6)n(C)c5)n(C)c4)n(C)c3)n2)cc1`, the result with MEF [2] and in the data set on MEF [3] was inactive. The outcome in the data set with MEF [4] was Active.
For `CC(=O)Nc1cn(C)c(C(=O)Nc2cc(C(=O)Nc3cc(C(=O)Nc4cc(C(=O)NCCCC(=O)Nc5cc(C(=O)Nc6cc(C(=O)Nc7cc(C(=O)Nc8cc(C(=O)NCCCN(C)CCCNC(=O)c9ccc(NC(=O)CCCCCCC(=O)NO)cc9)n(C)c8)n(C)c7)n(C)c6)n(C)c5)n(C)c4)n(C)c3)n(C)c2)n1`, in the data set on MEF [1], the Activity entry is given as “Non-toxic”. For the same molecule, the “fold change (FC)” value in the data set on MEF [2] worked out at 2; in the data set with MEF [3], 2; with MEF [5], 2.2; with MEF [6] it was 1.5. In the data set with MEF [4], the result was Active. The HDAC inhibition activity result in data set [7] was “Active”.
With `CN(C)CCCNC(=O)c1cc(NC(=O)c2cc(NC(=O)c3cc(NC(=O)c4cc(NC(=O)CCCNC(=O)c5cc(NC(=O)c6cc(NC(=O)c7cc(NC(=O)c8nc(NC(=O)CCNC(=O)CCNC(=O)CCNC(=O)c9ccc(NC(=O)CCCCCCC(=O)NO)cc9)cn8C)cn7C)cn6C)cn5C)cn4C)cn3C)cn2C)cn1C`, the Activity result in the data set on MEF [1] is “Non-toxic”. Besides, the figures for the “fold change (FC)” value with MEF [2], in the data set on MEF [5] and in the data set on MEF [6] were 4.5, 1.5 and 1.5, respectively. The result with MEF [3] and in the data set with MEF [4] was Active. Also, the HDAC inhibition activity result in data set [7] is “Active”.
Turning to `CN(C)CCCNC(=O)CCNC(=O)c1cc(NC(=O)c2cc(NC(=O)c3cc(NC(=O)c4cc(NC(=O)CCCNC(=O)c5cc(NC(=O)c6cc(NC(=O)c7cc(NC(=O)c8nc(NC(=O)CCNC(=O)CCNC(=O)c9ccc(NC(=O)CCCCCCC(=O)NO)cc9)cn8C)cn7C)cn6C)cn5C)cn4C)cn3C)cn2C)cn1C`, the Activity result in the data set on MEF [1] is recorded as “Non-toxic”. Besides, the results for the “fold change (FC)” value with MEF [2], with MEF [3] and with MEF [6] were 2, 2 and 1.8, respectively. Also, the result with MEF [4] and in the data set on MEF [5] was Active. Further, the HDAC inhibition activity entry in data set [7] is “Active”.
Regarding `CN(C)CCCNC(=O)c1cc(NC(=O)c2cc(NC(=O)c3cc(NC(=O)c4cc(NC(=O)CCCNC(=O)c5cc(NC(=O)c6cc(NC(=O)c7cc(NC(=O)c8nc(NC(=O)CCNC(=O)c9ccc(NC(=O)CCCCCCC(=O)NO)cc9)cn8C)cn7C)cn6C)cn5C)cn4C)cn3C)cn2C)cn1C`, the Activity entry with MEF [1] was “Non-toxic”. Further, the “fold change (FC)” value came out at 2 in the data set on MEF [2], 2 with MEF [3] and 1.5 with MEF [5]. Further, the outcome in the data set on MEF [4] was Active. For the same molecule, in the data set with MEF [6], the result was inactive. Moreover, in data set [7], the HDAC inhibition activity entry is “Active”.
With `CN(C)CCCNC(=O)c1cc(NC(=O)c2cc(NC(=O)c3cc(NC(=O)c4cc(NC(=O)CCCNC(=O)c5cc(NC(=O)c6cc(NC(=O)c7cc(NC(=O)c8nc(NC(=O)CCNC(=O)CCNC(=O)c9ccc(NC(=O)CCCCCCC(=O)NO)cc9)cn8C)cn7C)cn6C)cn5C)cn4C)cn3C)cn2C)cn1C`, in the data set on MEF [1], the Activity entry is recorded as “Non-toxic”. Besides, the “fold change (FC)” value is on record as 3.1 in the data set on MEF [2] and 2 in the data set with MEF [3]. In addition, in the data set on MEF [4], the result was Active. The outcome in the data set on MEF [5] and with MEF [6] was inactive. The HDAC inhibition activity entry in data set [7] was “Active”.
Regarding `O=C(CCCCCCC(=O)Nc1ccccc1)NO`, the outcome in the data set on MEF [2] and in the data set with MEF [3] was inactive. Besides, the outcome in the data set with MEF [4] was Active.
